Test results from patent publication US10820597B2, “Phytosanitary composition comprising essential oils that potentiate antifungal activity” (BIOFUNGITEK, S. L., priority 2011, dated 2020).
Where “and” joins values, the source holds several entries; their conditions need not be identical. Identical values can stand only once. Like-named read-outs stand apart in the source and are kept apart here.

Tests used:
Cercospora beticola = assay: Growth of C. beticola on PDA, colony diameter; assay type: cell-based
Protocol: Cercospora beticola was cultured on PDA (potato dextrose agar) culture medium buffered to a pH value not exceeding 9.5. […] The % inhibition was calculated with the following formula:
[formula] wherein “colony diameter (control)” is the size of the control colony (without the compounds to be tested) and “colony diameter (x)” is the size of the colony with the substance(s) to be tested. A fixed K2CO3 concentration of 7.24 mM was tested in C. beticola.
The fungus C. beticola was cultured in a similar way to Example 16 with 10 ppm of carvacrol.
The fungus C. beticola was cultured in a similar way to Example 16 with a fixed concentration of K2CO3 (7.24 mM) and carvacrol (10 ppm).

Botrytis cinerea [1] = assay: Treated tomato leaves infected with B. cinerea, % infection after two weeks; assay type: in vivo
Phytophthora infestans = assay type: in vivo; conditions: tomato plants
Alternaria alternata [2] = assay: Growth of A. alternata in liquid culture, optical density after 24 h; assay type: cell-based
Alternaria alternata [3] = assay: Treated tomato leaves infected with A. alternata, % infection; assay type: in vivo
Botrytis cinerea [4] = assay: Growth of B. cinerea in PDB liquid culture, optical density after 24 h; assay type: cell-based
Penicillium digitatum [5] = assay: Growth of P. digitatum in liquid culture, optical density after 24 h; assay type: cell-based
Penicillium digitatum [6] = conditions: green mold on oranges; cited from earlier work
Leveillula taurica = assay type: in vivo
[7] = carvacrol 308 ppm, listed as carvacrol
[8] = K2CO3 concentration between 3.5 and 5 mM
[9] = thymol 350 ppm, listed as thymol

## Cc1ccc(C(C)C)cc1O [Carvacrol, carvacrol]
Cercospora beticola; Cercospora beticola, carvacrol 10 ppm, read-out: Inhibition ± SD (%)
  inhibition at 10 ppm: 17%
Botrytis cinerea [1]; carvacrol 26 ppm
  Inhibition ± SD (%): 7.2%
Botrytis cinerea [1]; carvacrol 31 ppm
  Inhibition ± SD (%): 7.4%
Botrytis cinerea [1]; carvacrol 100 ppm
  Inhibition ± SD (%): 16.7%
Botrytis cinerea [1]; carvacrol 200 ppm
  Inhibition ± SD (%): 18.6%
Botrytis cinerea [1]; carvacrol 308 ppm
  Inhibition ± SD (%): 20.8%
Botrytis cinerea [1]; [7]
  Inhibition ± SD (%): 21%
Phytophthora infestans; carvacrol 26 ppm
  Inhibition ± SD (%): 3.2 ± 0.8%
Phytophthora infestans; carvacrol 150 ppm
  Inhibition ± SD (%): 17.1 ± 2.3%
Phytophthora infestans; carvacrol 308 ppm
  Inhibition ± SD (%): 35.0 ± 4.8%
Phytophthora infestans; [7]
  Inhibition ± SD (%): 35%
Alternaria alternata [2]; Alternaria alternata, read-out: Inhibition ± SD (%), carvacrol 0.1 ppm
  inhibition at 0.1 ppm: 0%
Alternaria alternata [2]; Alternaria alternata, read-out: Inhibition ± SD (%), carvacrol 0.31 ppm
  inhibition at 0.31 ppm: 2 ± 0.3%
Alternaria alternata [2]; Alternaria alternata, read-out: Inhibition ± SD (%), carvacrol 1 ppm
  inhibition at 1 ppm: 3.5 ± 0.8%
Alternaria alternata [2]; Alternaria alternata, read-out: Inhibition ± SD (%), carvacrol 3.1 ppm
  inhibition at 3.1 ppm: 5.8 ± 1.4%
Alternaria alternata [2]; Alternaria alternata, read-out: Inhibition ± SD (%), carvacrol 10 ppm
  inhibition at 10 ppm: 17.7 ± 11%
Alternaria alternata [2]; Alternaria alternata, read-out: Inhibition ± SD (%), carvacrol 31 ppm
  inhibition at 31 ppm: 27%
Alternaria alternata [2]; Alternaria alternata, read-out: Inhibition ± SD (%), carvacrol 100 ppm
  inhibition at 100 ppm: 74.6 ± 8%
Alternaria alternata [2]; carvacrol 31 ppm
  Inhibition ± SD (%): 27.2 ± 14.0%
Alternaria alternata [3]; carvacrol 26 ppm
  Inhibition ± SD (%): 4.3%
Alternaria alternata [3]; carvacrol 31 ppm
  Inhibition ± SD (%): 5.8%
Alternaria alternata [3]; carvacrol 100 ppm
  Inhibition ± SD (%): 11.4%
Alternaria alternata [3]; carvacrol 200 ppm
  Inhibition ± SD (%): 16.1%
Alternaria alternata [3]; carvacrol 308 ppm
  Inhibition ± SD (%): 18% and 18.4%
Botrytis cinerea [4]; Botrytis cinerea, 24 h, read-out: Inhibition ± SD (%), carvacrol 0.1 ppm, 24 h OD
  inhibition at 0.1 ppm: 0%
Botrytis cinerea [4]; Botrytis cinerea, 24 h, read-out: Inhibition ± SD (%), carvacrol 0.31 ppm, 24 h OD
  inhibition at 0.31 ppm: 10.5 ± 7.7%
Botrytis cinerea [4]; Botrytis cinerea, 24 h, read-out: Inhibition ± SD (%), carvacrol 1 ppm, 24 h OD
  inhibition at 1 ppm: 13.7 ± 4.1%
Botrytis cinerea [4]; Botrytis cinerea, 24 h, read-out: Inhibition ± SD (%), carvacrol 3.1 ppm, 24 h OD
  inhibition at 3.1 ppm: 22.4 ± 3.4%
Botrytis cinerea [4]; Botrytis cinerea, 24 h, read-out: Inhibition ± SD (%), carvacrol 10 ppm, 24 h OD
  inhibition at 10 ppm: 21%
Botrytis cinerea [4]; Botrytis cinerea, 24 h, read-out: Inhibition ± SD (%), carvacrol 31 ppm, 24 h OD
  inhibition at 31 ppm: 51.4 ± 5.5%
Botrytis cinerea [4]; Botrytis cinerea, 24 h, read-out: Inhibition ± SD (%), carvacrol 100 ppm, 24 h OD
  inhibition at 100 ppm: 74.4 ± 1.1%
Botrytis cinerea [4]; carvacrol 10 ppm, 24 h OD
  Inhibition ± SD (%): 21.3 ± 5.0%
Penicillium digitatum [5]; Penicillium digitatum, 24 h, read-out: Inhibition ± SD (%), carvacrol 0.1 ppm, 24 h OD
  inhibition at 0.1 ppm: 32.3 ± 2.8%
Penicillium digitatum [5]; Penicillium digitatum, 24 h, read-out: Inhibition ± SD (%), carvacrol 0.31 ppm, 24 h OD
  inhibition at 0.31 ppm: 34.3 ± 2.8%
Penicillium digitatum [5]; Penicillium digitatum, 24 h, read-out: Inhibition ± SD (%), carvacrol 1 ppm, 24 h OD
  inhibition at 1 ppm: 37.9 ± 3%
Penicillium digitatum [5]; Penicillium digitatum, 24 h, read-out: Inhibition ± SD (%), carvacrol 3.1 ppm, 24 h OD
  inhibition at 3.1 ppm: 52.6 ± 2.2%
Penicillium digitatum [5]; Penicillium digitatum, 24 h, read-out: Inhibition ± SD (%), carvacrol 10 ppm, 24 h OD
  inhibition at 10 ppm: 58%
Penicillium digitatum [5]; Penicillium digitatum, 24 h, read-out: Inhibition ± SD (%), carvacrol 31 ppm, 24 h OD
  inhibition at 31 ppm: 86 ± 1.1%
Penicillium digitatum [5]; Penicillium digitatum, 24 h, read-out: Inhibition ± SD (%), carvacrol 100 ppm, 24 h OD
  inhibition at 100 ppm: 100%
Penicillium digitatum [5]; carvacrol 10 ppm, 24 h OD
  Inhibition ± SD (%): 57.8 ± 2.1%

## O=C([O-])[O-].[K+].[K+] [K2CO3, potassium carbonate]
Penicillium digitatum [6]
  fungicide treatment efficacy: effective as fungicide treatment
Cercospora beticola; K2CO3 7.24 mM
  Inhibition ± SD (%): 25%
Botrytis cinerea [1]; K2CO3 12 mM
  Inhibition ± SD (%): 14% and 13.4%
Botrytis cinerea [1]; K2CO3 13 mM
  Inhibition ± SD (%): 14% and 13.5%
Botrytis cinerea [1]; K2CO3 14 mM
  Inhibition ± SD (%): 13.8%
Botrytis cinerea [1]; K2CO3 15 mM
  Inhibition ± SD (%): 13.8%
Botrytis cinerea [1]; K2CO3 22 mM
  Inhibition ± SD (%): 15.3%
Phytophthora infestans; K2CO3 15 mM
  Inhibition ± SD (%): 19% and 18.5 ± 3.6%
Alternaria alternata [2]; K2CO3 3.5 mM, 24 h OD
  Inhibition ± SD (%): 32% and 31.5%
Alternaria alternata [2]; K2CO3 4.25 mM, 24 h OD
  Inhibition ± SD (%): 39.7%
Alternaria alternata [2]; K2CO3 4.5 mM, 24 h OD
  Inhibition ± SD (%): 48.0%
Alternaria alternata [2]; K2CO3 5 mM, 24 h OD
  Inhibition ± SD (%): 59.0%
Alternaria alternata [2]; [8]
  inhibition of the culture: inhibition of the A. alternata culture was observed
Alternaria alternata [3]; K2CO3 12 mM
  Inhibition ± SD (%): 6.5%
Alternaria alternata [3]; K2CO3 13 mM
  Inhibition ± SD (%): 7%
Alternaria alternata [3]; K2CO3 14 mM
  Inhibition ± SD (%): 7.2%
Alternaria alternata [3]; K2CO3 15 mM
  Inhibition ± SD (%): 7.8%
Alternaria alternata [3]; K2CO3 22 mM
  Inhibition ± SD (%): 8.6%
Botrytis cinerea [4]; K2CO3 3.5 mM, 24 h OD
  Inhibition ± SD (%): 48% and 48.2%
Botrytis cinerea [4]; K2CO3 4.25 mM, 24 h OD
  Inhibition ± SD (%): 53.3%
Botrytis cinerea [4]; K2CO3 4.5 mM, 24 h OD
  Inhibition ± SD (%): 67.2%
Botrytis cinerea [4]; K2CO3 5 mM, 24 h OD
  Inhibition ± SD (%): 71.0%
Botrytis cinerea [4]; [8]
  inhibition of the culture: inhibition of the B. cinerea culture was observed
Penicillium digitatum [5]; K2CO3 3.5 mM, 24 h OD
  Inhibition ± SD (%): 29% and 29.1%
Penicillium digitatum [5]; K2CO3 4.25 mM, 24 h OD
  Inhibition ± SD (%): 33.0%
Penicillium digitatum [5]; K2CO3 4.5 mM, 24 h OD
  Inhibition ± SD (%): 36.9%
Penicillium digitatum [5]; K2CO3 5 mM, 24 h OD
  Inhibition ± SD (%): 39.5%
Penicillium digitatum [5]; [8]
  inhibition of the culture: inhibition of the P. digitatum culture was observed
Leveillula taurica; K2CO3 15 mM, tomato plants
  Inhibition ± SD (%): 14%
Leveillula taurica; in vivo
  Inhibition ± SD (%): 14% and 13.9 ± 0.5%

## Cc1ccc(C(C)C)c(O)c1 [Thymol, thymol]
Botrytis cinerea [1]; thymol 35 ppm
  Inhibition ± SD (%): 7.4%
Botrytis cinerea [1]; thymol 100 ppm
  Inhibition ± SD (%): 17.7%
Botrytis cinerea [1]; thymol 200 ppm
  Inhibition ± SD (%): 20.9%
Botrytis cinerea [1]; thymol 350 ppm
  Inhibition ± SD (%): 22.8%
Botrytis cinerea [1]; [9]
  Inhibition ± SD (%): 23%
Phytophthora infestans; thymol 35 ppm
  Inhibition ± SD (%): 4.3 ± 0.7%
Phytophthora infestans; thymol 150 ppm
  Inhibition ± SD (%): 16.2 ± 3.2%
Phytophthora infestans; thymol 350 ppm
  Inhibition ± SD (%): 33.6 ± 5.6%
Phytophthora infestans; [9]
  Inhibition ± SD (%): 34%
Alternaria alternata [2]; Alternaria alternata, thymol 0.31 ppm, 24 h OD, read-out: Inhibition ± SD (%)
  inhibition at 0.31 ppm: 0%
Alternaria alternata [2]; Alternaria alternata, thymol 1 ppm, 24 h OD, read-out: Inhibition ± SD (%)
  inhibition at 1 ppm: 4.1 ± 2.9%
Alternaria alternata [2]; Alternaria alternata, thymol 3.1 ppm, 24 h OD, read-out: Inhibition ± SD (%)
  inhibition at 3.1 ppm: 10.4 ± 2.6%
Alternaria alternata [2]; Alternaria alternata, thymol 10 ppm, 24 h OD, read-out: Inhibition ± SD (%)
  inhibition at 10 ppm: 16 ± 2%
Alternaria alternata [2]; Alternaria alternata, thymol 31 ppm, 24 h OD, read-out: Inhibition ± SD (%)
  inhibition at 31 ppm: 29%
Alternaria alternata [2]; Alternaria alternata, thymol 100 ppm, 24 h OD, read-out: Inhibition ± SD (%)
  inhibition at 100 ppm: 69.4%
Alternaria alternata [3]; thymol 35 ppm
  Inhibition ± SD (%): 10.0%
Alternaria alternata [3]; thymol 100 ppm
  Inhibition ± SD (%): 15.2%
Alternaria alternata [3]; thymol 200 ppm
  Inhibition ± SD (%): 19.3%
Alternaria alternata [3]; thymol 350 ppm
  Inhibition ± SD (%): 21.3%
Alternaria alternata [3]; [9]
  Inhibition ± SD (%): 21%
Botrytis cinerea [4]; Botrytis cinerea, 24 h, thymol 0.31 ppm, 24 h OD, read-out: Inhibition ± SD (%)
  inhibition at 0.31 ppm: 0%
Botrytis cinerea [4]; Botrytis cinerea, 24 h, thymol 1 ppm, 24 h OD, read-out: Inhibition ± SD (%)
  inhibition at 1 ppm: 2.1 ± 2.9%
Botrytis cinerea [4]; Botrytis cinerea, 24 h, thymol 3.1 ppm, 24 h OD, read-out: Inhibition ± SD (%)
  inhibition at 3.1 ppm: 10.7 ± 2.3%
Botrytis cinerea [4]; Botrytis cinerea, 24 h, thymol 10 ppm, 24 h OD, read-out: Inhibition ± SD (%)
  inhibition at 10 ppm: 13%
Botrytis cinerea [4]; Botrytis cinerea, 24 h, thymol 31 ppm, 24 h OD, read-out: Inhibition ± SD (%)
  inhibition at 31 ppm: 32 ± 1.7%
Botrytis cinerea [4]; Botrytis cinerea, 24 h, thymol 100 ppm, 24 h OD, read-out: Inhibition ± SD (%)
  inhibition at 100 ppm: 88.2 ± 0.6%
Botrytis cinerea [4]; thymol 10 ppm, 24 h OD
  Inhibition ± SD (%): 12.6 ± 2.4%
Penicillium digitatum [5]; Penicillium digitatum, 24 h, thymol 0.31 ppm, 24 h OD, read-out: Inhibition ± SD (%)
  inhibition at 0.31 ppm: 28.2 ± 3.9%
Penicillium digitatum [5]; Penicillium digitatum, 24 h, thymol 1 ppm, 24 h OD, read-out: Inhibition ± SD (%)
  inhibition at 1 ppm: 24.2 ± 6%
Penicillium digitatum [5]; Penicillium digitatum, 24 h, thymol 3.1 ppm, 24 h OD, read-out: Inhibition ± SD (%)
  inhibition at 3.1 ppm: 36.3 ± 2.3%
Penicillium digitatum [5]; Penicillium digitatum, 24 h, thymol 10 ppm, 24 h OD, read-out: Inhibition ± SD (%)
  inhibition at 10 ppm: 36.2 ± 2%
Penicillium digitatum [5]; Penicillium digitatum, 24 h, thymol 31 ppm, 24 h OD, read-out: Inhibition ± SD (%)
  inhibition at 31 ppm: 51%
Penicillium digitatum [5]; Penicillium digitatum, 24 h, thymol 100 ppm (first column headed 100), 24 h OD, read-out: Inhibition ± SD (%)
  inhibition at 100 ppm: 78.3 ± 2.2%
Penicillium digitatum [5]; Penicillium digitatum, 24 h, thymol 100 ppm (second column headed 100), 24 h OD, read-out: Inhibition ± SD (%)
  inhibition at 100 ppm: 95.6 ± 0.5%
Penicillium digitatum [5]; thymol 31 ppm, 24 h OD
  Inhibition ± SD (%): 50.7 ± 2.0%
